Data set [1] deals with CD1 mice. The experiment in a line: Anticonvulsant activity, strychnine induced seizures. Type of data set: in vivo. Particulars: Mus musculus; po.; read-out: Strychnine ED50. In outline:
(§1)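 Read-out: clonic-tonic seizures and lethality after chemical challenge in male CD1 mice, pretreated orally (three doses, ten animals each) typically 60 min earlier.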

For data set [2], the system named is CD1 mice. Description: Anticonvulsant activity, bemegride induced seizures. Type of data set: in vivo. Particulars: Mus musculus; po.; read-out: Bemegride ED50. The method in brief:
as §1

Data set [3] deals with CD1 mice. Description: Anticonvulsant activity, bicuculline induced seizures. Type of data set: in vivo. As to conditions: Mus musculus; po.; read-out: Bicuculline ED50. In outline: as §1
Data set [4] deals with CD1 mice. The experiment in a line: Anticonvulsant activity, nicotine induced seizures. Particulars: Mus musculus; po. Type of data set: in vivo. The method in brief:
as §1

For data set [5], the system named is CD1 mice. Description: Anticonvulsant activity, 3-mercapto-propionic acid induced seizures. Type of data set: in vivo. As to conditions: Mus musculus; po.; read-out: 3-MPA ED50. The method in brief: as §1
Data set [6] relates to CD1 mice. Description: Muscle relaxant activity, inclined screen test. Type of data set: in vivo. Particulars: Mus musculus, ip.
Another data set concerns rats. The experiment in a line: Inhibition of focal ischemia, middle cerebral artery occlusion (MCAO) test. Type of data set: in vivo. As for the experimental part: The focal anti-ischemic activity of the compounds of formula (I) or (II) of the present invention was measured by the “middle cerebral artery occlusion” (MCAO) test (Bartus Stroke 11:2265 (1994) and Sydserff et al, Brit. J. Pharmacol. 114:1631 (1995)). […] After a histological process (TTC staining) 24 h later, the infarcted area was determined by a computer assisted scanner program and was compared to the results obtained in a control group treated with the vehicle.

The subject of data set [7] is CD1 mice. Description: Anti-tremor effect, oxotremorine induced tremor. As to conditions: for ED50: Mus musculus, po., Litchfield-Wilcoxon, limits in brackets, read-out: ED50, tremor induced by Oxotremorin 1 mg/kg ip. Type of data set: in vivo.
The test system of data set [8] is CD1 mice. The experiment in a line: Anti-tremor effect, harmaline induced tremor. Type of data set: in vivo. Particulars: po., Litchfield-Wilcoxon, limits in brackets.
In another data set the test system is BN rats. The experiment in a line: Bronchial hyperresponsiveness of ovalbumin sensitized, antigen challenged BN rats (tracheal rings, acetylcholine). Type of data set: in vivo. As to conditions: 3.0 mg/kg po, 2 hours pre-challenge, mean ± SE. The text has this: Bronchial hyperresponsiveness (BHR) and airway eosinophilia (AEP) are characteristic features of bronchial asthma. BHR is typified by an exaggerated response to a wide variety of stimuli that can induce an increased resistance to airflow in the airways. AEP is a result of prolonged eosinophil infiltration, mast cell, and T cell activation in the airways. In actively (e.g., ovalbumin) immunized rats (e.g., Brown Norway [BN] strain), repeated sensitization followed by antigenic challenge results in lung eosinophilia and bronchial hyperresponsiveness to different spasmogens (e.g., acetylcholine). This is the most frequently employed model for studying potential anti-asthmatic effects of new chemical entities.
BN rats were actively immunized with allergen (ovalbumin). On day one, rats were sensitized with the subcutaneous administration of ovalbumin suspended in Al(OH)3 (2.5 μg ovalbumin +20 mg Al(OH)3 in 0.5 ml saline). Booster injections (same dose and same route) were given at day 14 and 21. Simultaneously at each occasion 0.25 ml of Bordatella pentussis vaccine was injected intraperitoneally. On day 28, animals were challenged by inhalation of the antigen (vaporized 1% OVA solution for 1 hour). Test compounds were administered orally 2 hours pre-challenge.
48 hours following challenge, they were sacrificed by an overdose of urethane (4-5 ml of 15% urethane given i.p.), bronchoalveolar lavage fluid (BALF) was obtained, and tracheae dissected from the animals. Eosinophil cell count (cells/ml BALF) was determined manually using a selective stain for eosinophils and counting the cells in a Buerker chamber. BHR was determined using tracheal rings suspended in an organ bath. After an equilibration period of 30 minutes, cumulative concentration response curves to acetylcholine were determined. Maximal response of control (unchallenged, non-treated) tracheal rings is obtained at 10^−3 M acetylcholine. The height of this response is defined as 100%. All other contractions are expressed as a percentage and related to the control response.

In the next data set the test system is Lewis rats. The experiment in a line: Autoimmune encephalomyelitis model, neurological (clinical) symptoms. Type of data set: in vivo. As to conditions: Rattus norvegicus, po, female rats, read-out: Neurological symptoms (change compared to controls, %); for change in vivo at 3.75 mg/kg: 3.75 mg/kg p.o.
The subject of a further data set is epilepsy patients. Particulars: Bialer et al.; cited from earlier work.
Where [9] appears, read: 2 mg/kg iv. 6x in every 30 min, first treatment 120 min after occlusion.
Where [10] appears, read: 2 mg/kg iv. 6x in every 30 min, first treatment 180 min after occlusion.

SMILES strings stand for the structures. Where two headings read alike, the source gives them in different places. Marks after values point to notes of the source that are not given here.

With `Cc1nnc(N2N=C(c3ccc(N)cc3)c3cc4c(cc3C[C@H]2C)OCO4)s1` [Example 86, (R)-5-(4-Aminophenyl)-8-methyl-7-(5-methyl-1,3,4-thiadiazol-2-yl)-8,9-dihydro-7H-1,3-dioxolo-[4,5-h][2,3]benzodiazepine], the ED50 with CD1 mice [1] came out at 10.6 mg/kg; in the data set on CD1 mice [2], 11.2 mg/kg; in the data set on CD1 mice [3], 4.6 mg/kg; in the data set on CD1 mice [4] it was 16.5 mg/kg; in the data set with CD1 mice [5], 4 mg/kg; in the data set on CD1 mice [6] it was 3.9 mg/kg. The ED50 with CD1 mice [7] was determined as 4.3 mg/kg. In addition, in the data set with rats (1 mg/kg iv. 6x in every 30 min, first treatment 180 min after occlusion), the “Decrease of the infracted area in % compared to that of the control” value (“Decrease of the infracted area in %” below) is reported as 35* %. The “Neuroprotective activity when administered 3 h after the occlusion” value with rats (result in words) is given as “significant activity”. Further, the “Anti-tremor activity compared to the reference compounds” value with CD1 mice [7] (oxotremorine, GYKI 20039 and harmaline, result in words) is “more active than the reference compounds GYKI 53773 and GYKI 52466”. Moreover, the “ED50, tremor induced by Harmaline 40 mg/kg ip.” value in the data set on CD1 mice [8] is recorded as 6.0(4.9-7.4) mg/kg po. Also, the “MAX: relative contraction compared to the control at a maximal Ach concentration” value (“MAX: relative contraction” for short) with BN rats is reported as 81 ± 14%. Moreover, the pEC50 of acetylcholine with BN rats was 4.95 ± 0.59 −log M.

Broadly, the melting point is the temperature, or range, at which the solid turns liquid. For the molecule `Cc1nnc(N2N=C(c3ccc(N)c(C)c3)c3cc4c(cc3C[C@H]2C)OCO4)s1` [Example 119, (R)-5-(4-amino-3-methylphenyl)-8-methyl-7-(5-methyl-1,3,4-thiadiazol-2-yl)-8,9-dihydro-7H-1,3-dioxolo-[4,5-h][2,3]benzodiazepine], the melting point fell in the range of 158 to 160 °C. For the same molecule, the ED50 in the data set on CD1 mice [1] turned out to be 8.4 mg/kg. Besides, in the data set on CD1 mice [2], the ED50 turned out to be 5.7 mg/kg. Also, in the data set with CD1 mice [3], the ED50 amounted to 2.5 mg/kg. For the same molecule, the ED50 in the data set on CD1 mice [4] was 6.3 mg/kg. Also, in the data set on CD1 mice [5], the ED50 came out at 3.37 mg/kg. This molecule showed an ED50 with CD1 mice [6] of 2.49 mg/kg. In addition, the “Decrease of the infracted area in %” value with rats (0.5 mg/kg iv. 6x in every 30 min, first treatment 120 min after occlusion) was found to be 7%. For the same molecule, the “Decrease of the infracted area in %” value with rats (1 mg/kg iv. 6x in every 30 min, first treatment 120 min after occlusion) is reported as 38%. In addition, the “Decrease of the infracted area in %” value in the data set with rats (1.5 mg/kg iv. 6x in every 30 min, first treatment 120 min after occlusion) was 51* %. The “Decrease of the infracted area in %” value in the data set with rats (1.5 mg/kg iv. 6x in every 30 min, first treatment 180 min after occlusion) is given as 21%. Moreover, the “Decrease of the infracted area in %” value in the data set on rats (setting [9]) was 56* %. The “Decrease of the infracted area in %” value in the data set on rats (setting [10]) is recorded as 44** %. The “Decrease of the infracted area in %” value in the data set on rats (2.0 mg/kg iv. 6x in every 30 min, first treatment 240 min after occlusion) amounted to 21%. Also, the ED50 with CD1 mice [7] is 1.38 mg/kg. In addition, in the data set with BN rats, the “MAX: relative contraction” value turned out to be 82 ± 7% and the pEC50 of acetylcholine is 4.35 ± 0.36 −log M. In addition, the change in vivo at 1 mg/kg in the data set on Lewis rats (1.0 mg/kg p.o., 0-14 day) was -23%. Moreover, the change in vivo at 3.75 mg/kg in the data set with Lewis rats (0-8 day) was -64%. For the same molecule, in the data set with Lewis rats (0-14 day), the change in vivo at 3.75 mg/kg is -61%.

For `CC(=O)N1N=C(c2ccc(N)cc2)c2cc3c(cc2C[C@H]1C)OCO3` [GYKI 53773, (R)-7-acetyl-5-(4-aminophenyl)-8,9-dihydro-8-methyl-7H-1,3-dioxolo[4,5-h][2,3]benzodiazepine, reference compound], the ED50 in the data set on CD1 mice [1] came out at 17.4 mg/kg; with CD1 mice [2], 23.9 mg/kg; with CD1 mice [3], 14.6 mg/kg; in the data set on CD1 mice [4] it was 22.7 mg/kg; with CD1 mice [5] it was 17.1 mg/kg; in the data set on CD1 mice [6], 13.4 mg/kg. In the data set on CD1 mice [7], the ED50 was 5.6 mg/kg. Besides, the “Decrease of the infracted area in %” value in the data set on rats (2 mg/kg iv. 6x in every 30 min, first treatment 30 min after occlusion) is listed as 47* %; in the data set on rats (setting [9]), 49** %; in the data set with rats (setting [10]) it was 26%. For the same molecule, the “ED50, tremor induced by Harmaline 40 mg/kg ip.” value in the data set with CD1 mice [8] is on record as 9.0(−7.4-10.9) mg/kg po. In addition, the “MAX: relative contraction” value in the data set with BN rats came out at 85 ± 43%. In addition, the “Activity in clinical trials on epilepsy patients” value in the data set with epilepsy patients is on record as “active”.

The values above are taken from patent US20070027143A1, “Novel substituted 2,3-benzodiazepine derivatives” (priority 2003, published 2007).
